{"source": "paper PMC11478334", "about": "“Quaternized Curcumin Derivative—Synthesis, Physicochemical Characteristics, and Photocytotoxicity, Including Antibacterial Activity after Irradiation with Blue Light” (Molecules, 2024)", "key": {"[1]": {"system": "Streptococcus pyogenes ATCC 19615", "test": "In vitro photodynamic inactivation of planktonic cells, 470 nm LED", "assay_type": "cell-based", "details": "for irradiation time to complete eradication: 470 nm LED", "description": "The second experiment was designed to determine the time and concentration required to achieve the biological effect observed in the first experiment and to extend the study to other strains (Figure 12). Apart from S. aureus and E. coli, the Gram-positive Streptococcus pyogenes ATCC 19615, which is the etiologic agent of tonsillitis, and the Gram-negative Pseudomonas aeruginosa NCTC 6749, which is a major threat to hospitalized and immunocompromised patients due to its high antibiotic resistance, were used. The observed effect was strictly concentration-dependent (Table 6). According to the results, Gram-positive bacteria appear to be the most susceptible to the applied photocytotoxicity study. […] For S. pyogenes, the results were even more pronounced, as the complete eradication under the influence of compound 3 at a concentration of 10 µM occurred after only 5 min of irradiation, while at a concentration of 1 µM, complete eradication occurred after 15 min of irradiation. Interesting results were also obtained for Gram-negative bacteria. […] A high level of eradication of P. aeruginosa in the presence of compound 3 (10 µM) was observed after only 5 min of irradiation (log reduction: 4.29). […] Reductions in microbial survival were still observed with a decrease in compound concentration, but complete eradication was not achieved within the irradiation time.\nThe microorganisms used in the study were (i) standard strains of bacteria: Staphylococcus aureus NCTC 4163, Escherichia coli ATCC 25922, Pseudomonas aeruginosa NCTC 6749, and Streptococcus […] ATCC 19615, and (ii) fungi: Candida albicans ATCC 10231. The standard strains were obtained from the National Collection of Type Cultures (NCTC, Salisbury, UK) and the American Type Culture Collection (ATCC, Manassas, VA, USA). Bacterial and yeast strains were stored in Microbank cryogenic vials (Pro-Lab Diagnostics, Richmond Hill, ON, Canada) at −70 °C ± 10 °C. The bacteria were cultured aerobically in brain–heart infusion (BHI) broth (OXOID, Basingstoke, UK) at 36 °C ± 1 °C for 20 h. C. albicans cultures were grown in Sabouraud dextrose broth (SDB, Merck, Steinheim, Germany) at 36 °C for 20 h.\nThe organisms were harvested by centrifugation (3000× g for 15 min) and resuspended in 1.5 mL of 10 mM PBS, pH, 7.0 (Sigma-Aldrich, St. Louis, MO, USA). The cells were then diluted 1/100 in PBS to a final concentration of about 10^7 colony-forming units (CFUs)/mL. Aliquots (100 μL) of a standardized microbial suspension were placed in the wells of microtiter plates, and an equal volume of a solution of the tested compound was added to give final concentrations of 1 × 10^−5 (10 µM) and 1 × 10^−6 M (1 µM) (groups P+). Negative control wells contained the bacterial or yeast suspension and PBS without the photosensitizer (groups P−). All the samples were incubated in the dark for 20 min and irradiated by the LED panel at a distance of 10 mm for a specific period, depending on the experiment (groups L+). To evaluate the antimicrobial activity of the tested compounds, duplicate experimental samples were prepared but not irradiated (groups L−). Viable microorganisms were measured by counting the number of colony-forming units (CFUs) after appropriate serial dilution and culture on tryptic soy agar plates (TSA, OXOID, Basingstoke, UK) or Columbia Blood Agar with Sheep Blood (CAS, OXOID, Basingstoke, UK) for bacteria and Sabouraud dextrose agar (SDA, Merck, Steinheim, Germany) for fungi, following incubation at 36 °C ± 1 °C for 24–72 h. The number of surviving organisms and the log10 reduction in microbial cells for each sample were calculated using a formula available in the literature.\nLamp type—LED λmax~470 nm (LIU470A LED Array Light Source; Thorlabs Inc., Bergkirchen, Germany); irradiance—16.67 mW/cm^2 (measured with PM16-130 Power Meter, Thorlabs Inc., Bergkirchen, Germany, and Optel Opole Sp. z o.o., Opole, Poland)."}, "S. aureus": {"system": "S. aureus", "details": "10 µM; 440 nm; 1.944 J/cm^2; 3.6 mW/cm^2; 8.8 min; cited from earlier work"}, "MRC-5 fibroblasts": {"system": "MRC-5 fibroblasts", "parameters": "method as in Lazewski et al. 32", "details": "ref Lazewski et al. 32, cited from earlier work"}}, "note": "Read-outs that look alike come from different tables or passages of the source.", "data": [{"compound": "F[B-]1(F)OC(/C=C/c2ccc(OCCN3CCOCC3)cc2)=CC(/C=C/c2ccc(OCCN3CCOCC3)cc2)=[O+]1", "note": "[Compound 2]", "values": [{"measurement": "melting point", "result": "170 to 173", "unit": "°C"}]}, {"compound": "C[N+]1(CCOc2ccc(C=CC3=CC(C=Cc4ccc(OCC[N+]5(C)CCOCC5)cc4)=[O+][B-](F)(F)O3)cc2)CCOCC1", "note": "[Compound 3]", "values": [{"measurement": "Log Red.", "setting": "[1]; 1 µM, 5 min irradiation 470 nm (5 J/cm^2)", "result": 3.03, "unit": "log"}, {"measurement": "irradiation time to complete eradication", "setting": "[1]; 1 µM", "result": 15, "unit": "min"}, {"measurement": "Log Red.", "setting": "[1]; 1 µM, 10 min irradiation 470 nm", "result": 4.51, "unit": "log"}, {"measurement": "Log Red.", "setting": "[1]; 1 µM, 15 min irradiation 470 nm", "result": ">4.93", "unit": "log"}, {"measurement": "Log Red.", "setting": "[1]; 10 µM, 5 min irradiation 470 nm (5 J/cm^2)", "result": ">4.93", "unit": "log"}, {"measurement": "irradiation time to complete eradication", "setting": "[1]; 10 µM", "result": 5, "unit": "min"}]}, {"compound": "Curcumin [reference compound]", "values": [{"measurement": "Efficiency (log reduction)", "setting": "S. aureus", "result": 5.3, "unit": "log"}, {"measurement": "IC50", "setting": "MRC-5 fibroblasts; after 24 h", "result": "70.4 ± 12.5", "unit": "µM"}, {"measurement": "IC50", "setting": "MRC-5 fibroblasts; after 48 h", "result": "45.3 ± 3.18", "unit": "µM"}]}]}
